Source: ChEMBL document CHEMBL5665443, “Enzyme Inhibitor Single Concentration assay results for EUbOPEN Chemogenomics Library” (2024)

Key:
Details in all cases: Hit No
[1] = biological target: Methyl-CpG-binding domain protein 4 (Homo sapiens) (UniProt O95243);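 note: MBD4 activity read as fluorescence at 594 nm from cleavage and release of a quenched duplex DNA oligonucleotide, with APE1 coupled to incise the strand and raise turnover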
Description: Inhibition of MBD4 by quantifying inhibition of MBD4-mediated cleavage and dissociation of quenched duplex DNA oligonucleotides, measured as fluorescence at 594 nm. To generate a functional strand incision and increase turn-over this assay is coupled to APE1.

[2] = biological target: T1, Endonuclease 8-like 2 (Homo sapiens) (UniProt Q969S2);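 note: fluorescence at 594 nm reports NEIL2 cutting and release of a quenched double-stranded DNA oligo substrate, reduced signal read as inhibition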
T1 sequence (whole entry): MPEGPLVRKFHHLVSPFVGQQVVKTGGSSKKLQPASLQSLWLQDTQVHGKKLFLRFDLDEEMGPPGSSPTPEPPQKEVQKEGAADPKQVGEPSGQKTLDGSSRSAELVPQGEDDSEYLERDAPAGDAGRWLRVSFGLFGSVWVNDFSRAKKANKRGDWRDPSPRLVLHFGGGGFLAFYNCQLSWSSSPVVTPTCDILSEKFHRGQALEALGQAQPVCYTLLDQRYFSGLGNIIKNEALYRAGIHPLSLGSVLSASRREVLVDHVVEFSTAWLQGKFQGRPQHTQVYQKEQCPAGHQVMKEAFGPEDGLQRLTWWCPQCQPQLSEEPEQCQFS
Description: Inhibition of NEIL2 by quantifying inhibition of NEIL2-mediated cleavage and dissociation of quenched duplex DNA oligonucleotides, measured as fluorescence at 594 nm.

[3] = biological target: T2, Endonuclease III-like protein 1 (Homo sapiens) (UniProt P78549);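 note: enzyme assay tracking NTHL1 cutting and release of a quenched double-stranded DNA oligo substrate, read as fluorescence at 594 nm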
T2 sequence (whole entry): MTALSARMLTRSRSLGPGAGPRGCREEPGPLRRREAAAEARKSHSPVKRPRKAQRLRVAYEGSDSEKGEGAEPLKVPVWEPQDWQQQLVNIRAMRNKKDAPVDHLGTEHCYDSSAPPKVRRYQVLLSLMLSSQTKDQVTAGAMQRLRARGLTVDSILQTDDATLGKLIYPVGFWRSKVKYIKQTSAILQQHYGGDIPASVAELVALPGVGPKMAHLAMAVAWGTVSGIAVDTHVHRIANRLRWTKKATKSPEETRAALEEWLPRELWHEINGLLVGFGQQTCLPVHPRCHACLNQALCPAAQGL
Description: Inhibition of NTHL1 by quantifying inhibition of NTHL1-mediated cleavage and dissociation of quenched duplex DNA oligonucleotides, measured as fluorescence at 594 nm.

[4] = biological target: N-glycosylase/DNA lyase (Homo sapiens) (UniProt O15527);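 note: OGG1 cleavage of a quenched duplex DNA oligonucleotide, coupled to APE1 for strand incision, read as fluorescence at 594 nm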
N-glycosylase/DNA lyase (Homo sapiens), sequence (O15527 whole entry): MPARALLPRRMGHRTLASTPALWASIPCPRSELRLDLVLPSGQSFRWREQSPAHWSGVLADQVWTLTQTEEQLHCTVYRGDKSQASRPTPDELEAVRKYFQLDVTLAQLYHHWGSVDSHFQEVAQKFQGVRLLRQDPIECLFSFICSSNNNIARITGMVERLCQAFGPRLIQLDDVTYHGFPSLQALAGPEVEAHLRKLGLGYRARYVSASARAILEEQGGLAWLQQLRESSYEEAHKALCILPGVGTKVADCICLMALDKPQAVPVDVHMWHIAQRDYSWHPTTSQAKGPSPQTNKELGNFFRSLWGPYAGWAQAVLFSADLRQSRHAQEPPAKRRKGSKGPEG
Description: Inhibition of OGG1 by quantifying inhibition of OGG1-mediated cleavage and dissociation of quenched duplex DNA oligonucleotides, measured as fluorescence at 594 nm. To generate a functional strand incision and increase turn-over this assay is coupled to APE1.

[5] = biological target: Uracil-DNA glycosylase (Homo sapiens) (UniProt P13051);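 note: UNG excision on a quenched double-stranded DNA oligo probe, with APE1 added for strand incision and turnover, read as fluorescence at 594 nm as strands separate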
Uracil-DNA glycosylase (Homo sapiens), sequence (P13051 whole entry): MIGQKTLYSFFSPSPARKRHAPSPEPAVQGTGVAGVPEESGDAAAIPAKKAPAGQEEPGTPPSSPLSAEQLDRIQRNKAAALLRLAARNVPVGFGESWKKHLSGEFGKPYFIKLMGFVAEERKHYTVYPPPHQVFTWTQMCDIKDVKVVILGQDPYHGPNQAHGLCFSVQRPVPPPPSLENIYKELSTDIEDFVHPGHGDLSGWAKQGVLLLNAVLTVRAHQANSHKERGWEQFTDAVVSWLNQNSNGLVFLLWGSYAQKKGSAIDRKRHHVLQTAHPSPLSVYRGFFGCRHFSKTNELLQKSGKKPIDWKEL
Description: Inhibition of UNG by quantifying inhibition of UNG-mediated cleavage and dissociation of quenched duplex DNA oligonucleotides, measured as fluorescence at 594 nm. To generate a functional strand incision and increase turn-over this assay is coupled to APE1.

[6] = biological target: T3, Single-strand selective monofunctional uracil DNA glycosylase (Homo sapiens) (UniProt Q53HV7);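 note: enzymatic SMUG1 assay coupled with APE1, reading fluorescence at 594 nm released when a quenched double-stranded DNA oligonucleotide substrate is cleaved and separated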
T3 sequence (whole entry): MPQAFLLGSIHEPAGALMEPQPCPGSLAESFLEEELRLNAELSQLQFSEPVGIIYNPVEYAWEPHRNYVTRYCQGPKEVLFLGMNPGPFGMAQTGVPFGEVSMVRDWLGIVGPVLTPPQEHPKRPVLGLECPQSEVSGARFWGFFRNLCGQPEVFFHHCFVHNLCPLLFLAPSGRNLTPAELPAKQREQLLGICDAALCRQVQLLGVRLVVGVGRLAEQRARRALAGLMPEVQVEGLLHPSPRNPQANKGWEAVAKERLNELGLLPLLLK
Description: Inhibition of SMUG1 by quantifying inhibition of SMUG1-mediated cleavage and dissociation of quenched duplex DNA oligonucleotides, measured as fluorescence at 594 nm. To generate a functional strand incision and increase turn-over this assay is coupled to APE1.

[7] = biological target: G/T mismatch-specific thymine DNA glycosylase (Homo sapiens) (UniProt Q13569);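 note: human TDG cleavage of quenched duplex DNA oligonucleotides coupled to APE1, strand release read as fluorescence at 594 nm, inhibition of TDG activity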
G/T mismatch-specific thymine DNA glycosylase (Homo sapiens), sequence (Q13569 whole entry): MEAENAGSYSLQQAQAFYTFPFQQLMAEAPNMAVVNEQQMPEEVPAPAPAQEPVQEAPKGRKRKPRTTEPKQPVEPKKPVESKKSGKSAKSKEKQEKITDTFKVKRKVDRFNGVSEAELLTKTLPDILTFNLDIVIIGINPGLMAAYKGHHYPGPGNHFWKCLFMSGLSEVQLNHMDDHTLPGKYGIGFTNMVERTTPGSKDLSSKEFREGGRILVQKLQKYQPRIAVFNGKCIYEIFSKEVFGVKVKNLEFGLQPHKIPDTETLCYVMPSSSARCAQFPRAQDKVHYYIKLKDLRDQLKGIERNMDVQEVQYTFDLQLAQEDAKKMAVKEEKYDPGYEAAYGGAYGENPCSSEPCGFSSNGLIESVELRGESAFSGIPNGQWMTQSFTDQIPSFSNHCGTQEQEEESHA
Description: Inhibition of TDG by quantifying inhibition of TDG-mediated cleavage and dissociation of quenched duplex DNA oligonucleotides, measured as fluorescence at 594 nm. To generate a functional strand incision and increase turn-over this assay is coupled to APE1.

[8] = biological target: Endonuclease 8-like 1 (Homo sapiens) (UniProt Q96FI4);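 note: fluorescence at 594 nm from quenched duplex DNA oligonucleotides released by NEIL1 cleavage and strand separation, reported as reduction of this enzyme activity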
Endonuclease 8-like 1 (Homo sapiens), sequence (Q96FI4 whole entry): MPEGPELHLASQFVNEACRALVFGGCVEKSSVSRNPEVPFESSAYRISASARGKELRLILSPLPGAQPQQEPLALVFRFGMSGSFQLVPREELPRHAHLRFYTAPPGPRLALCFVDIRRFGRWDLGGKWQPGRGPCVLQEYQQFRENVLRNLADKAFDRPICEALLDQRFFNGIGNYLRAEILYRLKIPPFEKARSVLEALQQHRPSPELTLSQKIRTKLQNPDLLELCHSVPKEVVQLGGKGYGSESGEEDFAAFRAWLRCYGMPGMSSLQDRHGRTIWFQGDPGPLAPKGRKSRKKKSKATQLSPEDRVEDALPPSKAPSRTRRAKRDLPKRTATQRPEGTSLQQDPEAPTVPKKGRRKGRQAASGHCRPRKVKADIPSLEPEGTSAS
Description: Inhibition of NEIL1 by quantifying inhibition of NEIL1-mediated cleavage and dissociation of quenched duplex DNA oligonucleotides, measured as fluorescence at 594 nm.

Methyl-CpG-binding domain protein 4 (Homo sapiens), sequence (O95243 whole entry, the tested form may be a part): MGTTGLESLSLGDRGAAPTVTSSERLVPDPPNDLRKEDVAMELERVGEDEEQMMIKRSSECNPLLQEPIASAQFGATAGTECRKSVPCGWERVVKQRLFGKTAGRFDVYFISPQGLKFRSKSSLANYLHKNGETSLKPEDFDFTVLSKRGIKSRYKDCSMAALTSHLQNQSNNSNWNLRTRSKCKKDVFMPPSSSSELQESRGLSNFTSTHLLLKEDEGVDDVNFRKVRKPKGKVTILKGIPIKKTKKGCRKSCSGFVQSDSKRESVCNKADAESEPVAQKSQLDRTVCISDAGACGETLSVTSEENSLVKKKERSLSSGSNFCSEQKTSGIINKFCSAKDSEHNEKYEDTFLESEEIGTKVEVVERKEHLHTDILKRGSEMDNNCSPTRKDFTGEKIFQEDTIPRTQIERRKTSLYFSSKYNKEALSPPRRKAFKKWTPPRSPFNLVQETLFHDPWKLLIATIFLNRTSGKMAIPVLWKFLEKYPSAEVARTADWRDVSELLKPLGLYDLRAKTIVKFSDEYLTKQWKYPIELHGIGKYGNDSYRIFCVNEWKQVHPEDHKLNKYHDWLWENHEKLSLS

SMILES | inhibition ([1]; Compound Concentration 1.0 uM) [%] | inhibition ([2]; Compound Concentration 1.0 uM) [%] | inhibition ([3]; Compound Concentration 1.0 uM) [%] | inhibition ([4]; Compound Concentration 1.0 uM) [%] | inhibition ([5]; Compound Concentration 1.0 uM) [%] | inhibition ([6]; Compound Concentration 1.0 uM) [%] | inhibition ([7]; Compound Concentration 1.0 uM) [%] | inhibition ([8]; Compound Concentration 1.0 uM) [%] | inhibition ([1]; Compound Concentration 10.0 uM) [%] | inhibition ([2]; Compound Concentration 10.0 uM) [%] | inhibition ([3]; Compound Concentration 10.0 uM) [%] | inhibition ([4]; Compound Concentration 10.0 uM) [%] | inhibition ([5]; Compound Concentration 10.0 uM) [%] | inhibition ([6]; Compound Concentration 10.0 uM) [%] | inhibition ([7]; Compound Concentration 10.0 uM) [%] | inhibition ([8]; Compound Concentration 10.0 uM) [%]
C[C@H](NC(=O)c1cn(C2(C#N)CC2)cn1)C(=O)Nc1nc(-c2cccc(-c3ccn(C)n3)c2)cs1 | 59.5 | -9.67 | -7.2 | -5.28 | 1.27 | 3.85 | 51.4 | -5.74 |  |  |  |  |  |  |  | 
CNC(=O)COc1cc2cc(Nc3nc(N4C[C@H](C)C[C@H](C)C4)ncc3Cl)ccc2n(C)c1=O |  |  |  |  |  |  |  |  | 45.8 | 4.1 | -7.86 | 1.85 | 2.34 | 10.3 | 53.4 | -7.56
O=C(NCCCC1CCCCC1)c1ccc(CNC(=O)c2cnn(-c3ccccc3)c2C(F)(F)F)cc1 | 56.5 | -8.65 |  | 7.9 | -2.97 | 0.918 | 42.2 | -2.11 |  |  | -3.4 | 4.23 | 0.115 | 6.97 | 22.8 | 
OC(c1ccc(-c2ccc(CN3CCN(Cc4ccncc4)CC3)cc2)c(F)c1)(C(F)(F)F)C(F)(F)F |  |  |  |  |  |  |  |  | 47.6 | -2.02 | -8.52 | -1.15 | -1.04 | -2.17 | 64.2 | -6.8
O=C(O)c1ccnc(N2CC(O)(c3ccc(OCc4c(-c5c(Cl)cccc5Cl)noc4C4CC4)cc3Cl)C2)c1 |  |  |  |  |  |  |  |  | 54.3 | 3.34 | 5.29 | 35.5 | 4.51 | 16.5 | 97.2 | -4.99
CS(=O)(=O)c1cc(C2(NC(=O)c3cncc4c3cnn4-c3ccc(F)cc3)CC2)ccn1 | 53.3 | 1.04 | 0.0274 | -1.05 | 0.429 | 7.38 | 54.5 | -0.745 |  |  |  |  |  |  |  | 
C[C@H](NC(=O)Cc1ccc(-c2ccc3cccnc3n2)cc1)c1ccc(-c2ccc(F)c(C(F)(F)F)c2)cc1 |  |  |  |  |  |  |  |  | 22.6 | -4.68 | 14.6 | 5.81 | -4.78 | -7.59 | 8.35 | 7.12
CC(=O)Nc1ccc(-c2cc(-c3ccccc3)nc3cc(C(=O)NCCCn4ccnc4)nn23)cc1 |  |  |  |  |  |  |  |  | 52.7 | -6.36 | 3.31 | -1.79 | 5.92 | 10.4 | 38.6 | -3.92
C=C1/C(=C\C=C2/CCC[C@]3(C)[C@@H]([C@H](C)/C=C/C=C/C(O)(CC)CC)CC[C@@H]23)C[C@@H](O)C[C@@H]1O |  |  |  |  |  |  |  |  | 53.8 | 15.3 | -4.57 | -1.05 | 0.169 | -1.6 | 28.5 | 0.77
C=C1/C(=C\C=C2/CCC[C@]3(C)[C@@H]([C@H](C)/C=C/[C@H](C)C(C)C)CC[C@@H]23)C[C@@H](O)C[C@@H]1O |  |  |  |  |  |  |  |  | 52.9 | -1.51 | 0.685 | -5.13 | 1.6 | 9.91 | 47.8 | -1.8
CCCCOCCOc1nc(-c2ccc(C(=O)O)c(F)c2)sc1C |  |  |  |  |  |  |  |  | 64.4 | 6.14 | -1.29 | 14.4 | 1.01 | 18.1 | 46.5 | 6.68
FC(F)(F)c1ccc2c(c1)nc(-c1cccnc1)n2C1CC1 |  |  |  |  |  |  |  |  | 61.4 | -9.67 | -7.86 | -3.61 | -0.0445 | 3.68 | 39.3 | -3.77
COc1cc(N[C@@H]2CCCC[C@]2(O)C(F)(F)F)ccc1F | 65.4 | 4.36 | -3.26 | 1.9 | 0.673 | 14.3 | 50.9 | 1.98 |  |  |  |  |  |  |  | 
COC(=O)/C=C/c1cccc(N(Cc2ccc(-c3ccc(N(C)C)cc3)cc2)C(=O)C2CCCCC2)c1 |  |  |  |  |  |  |  |  | 53.7 | 3.34 | 7.26 | 7.66 | -3.03 | -4.57 | 44.3 | -4.23
CN1C(=O)[C@@H](N2CCc3c(nn(Cc4ccccc4)c3Br)C2=O)COc2ccccc21 | 25 | -4.38 | -4.24 | 0.775 | -2.6 | 3.33 | 32.5 | -6.27 |  |  |  |  |  |  |  | 
CN(C)C(=O)Cn1cc(-c2nc([C@@](C)(c3ccc(-c4cnc(N)nc4)cc3)C3CC3)no2)cn1 | 54.5 | -2.79 | -9.18 | -4.49 | 6.25 | 14.1 | 41 | -7.71 |  |  |  |  |  |  |  | 
COc1ccc2c(O[C@@H]3C[C@H]4C(=O)N[C@]5(C(=O)O)CC5/C=C\CCCCC[C@H](NC(=O)OC5CCCC5)C(=O)N4C3)cc(-c3csc(NC(=O)C(C)C)n3)nc2c1C (stereo partly specified) |  |  |  |  |  |  |  |  | 33.3 | 1.3 | 6.6 | 55.8 | 5.79 | -6.44 | 38.5 | -5.14
Nc1nc(NCc2ccccc2)nc(-c2cccc(CO)c2)n1 |  |  |  |  |  |  |  |  | 54 | -1.51 | -5.89 | -2.67 | -0.892 | 0.878 | 32.3 | -6.05
Cn1cc(-c2ccc3occ(-c4ccccc4-c4ccccc4)c3n2)cn1 |  |  |  |  |  |  |  |  | -2.48 | 1.31 | -8.28 | -7.06 | 0.982 | 17.5 | 33.2 | 6.35
